From patent publication US20060275329A1 (priority 2002, published 2006)

Experiments:
[1] = tested on: crude extract of Trypanosoma cruzi (PG synthesizing system); test: Prostaglandin production from arachidonic acid by crude extract of Trypanosoma cruzi; assay type: biochemical
Method: The vegetative form (epimastigote) of Trypanosoma cruzi YNIH strain in the insect body (obtained from the National Institute of Infectious Diseases (1-23-1, Toyama, Shinjuku-ku, Tokyo)) was incubated by the conventional method (Nozaki T. et al., J. Biol. Chem. 276: 6516-6523, 2001) using synthetic culture medium. The cultured protozoa was destroyed by hyposmotic treatment and allowed to react with arachidonic acid, and the PGs produced were extracted with an organic solvent and separated/purified by HPLC.

recombinant TcOYE = assay type: biochemical, Trypanosoma cruzi; conditions: pH 7
[2] = tested on: O=[N+]([O-])c1cc[n+]([O-])c2ccccc12; test: purified protein, by the assay type; conditions: other: cofactor NADPH (500 μM), argon-bubbled 0.1 M phosphate buffer pH 7.0, decrease in absorption at 340 nm
[3] = tested on: CC1CS(=O)(=O)CCN1/N=C/c1ccc([N+](=O)[O-])o1; test: purified protein, by the assay type; conditions: other: cofactor NADPH (500 μM), argon-bubbled 0.1 M phosphate buffer pH 7.0, decrease in absorption at 340 nm
[4] = tested on: [H][C@]12C[C@]([H])(OO1)[C@H](C/C=C\CCCC(=O)O)[C@H]2/C=C/[C@@H](O)CCCCC; test: purified protein, by the assay type; conditions: other: cofactor NADPH (500 μM), argon-bubbled 0.1 M phosphate buffer pH 7.0, decrease in absorption at 340 nm
C[n+]1c2ccccc2nc2ccccc21 = test: purified protein, by the assay type; conditions: other: cofactor NADPH (500 μM), argon-bubbled 0.1 M phosphate buffer pH 7.0, decrease in absorption at 340 nm
CC1=CC(=O)c2ccccc2C1=O = test: purified protein, by the assay type; conditions: other: cofactor NADPH (500 μM), argon-bubbled 0.1 M phosphate buffer pH 7.0, decrease in absorption at 340 nm
[5] = tested on: CC1(C)CCC2=C(O1)c1ccccc1C(=O)C2=O; test: purified protein, by the assay type; conditions: other: cofactor NADH (500 μM), argon-bubbled 0.1 M phosphate buffer pH 7.0, decrease in absorption at 340 nm
TcOYE [6] = test: Electron spin resonance spectrum of the reaction product of TcOYE (radical generation); assay type: biochemical, Trypanosoma cruzi; conditions: JEOL X-band spectrometer
Method: Generation of radicals as a result of one-electron reduction is determined as follows. A hundred microliter of 5 mM tris-HCl buffer (pH 7.0) containing TcOYE and a substrate candidate is displaced with argon gas for 5 minutes to make an anaerobic environment. Then, 10 mM NADPH or NADH is added to the reaction mixture and allowed to react at 25° C. or 37° C. for 3 minutes under anaerobic condition. Part of the reaction mixture is analyzed with an electron spin resonance spectrometer (JEOL X-band spectrometer) to determine the generation of radicals. The measurement conditions and analytical method are described in the paper below. It is believed that the radicals produced react with oxygen to generate superoxide anion radicals (Moreno S. N. J. et al., J. Biol. Chem. 259: 6298-6305, 1984), which kill Trypanosoma cruzi.
The semiquinone radicals reacted with oxygen and produced superoxide anion radicals, which kill the protozoa (see FIG. 8).

TcOYE [7] = test: Inhibition of the PGH2-F2α reductase activity of TcOYE; assay type: biochemical, Trypanosoma cruzi; conditions: FIG. 9
Method: An example of the reaction is as follows. For reaction under aerobic condition, 1 μl of 500 μM [1-14C]PGH2 solution (2.04 Gbq/mmol; acetone, DMSO or dimethylether diethylene glycol solution) is added to 100 μl of 100 mM phosphate buffer (pH 7.0) containing a NADPH production system (100 μM NADP, 100 μM glucose-6-phosphate, 1 unit of glucose-6-phosphate dehydrogenase), TcOYE and an inhibitor, and is allowed to react at 37° C. for two minutes. For reaction under anaerobic condition, after bubbling the reaction mixture with argon gas for five minutes, 100 μM NADPH or NADH and 1 μl PGH2 solution are added, and the mixture is allowed to react in argon gas at 37° C. for two minutes.
250 μl of a stop solution (diethyl ether:methanol:2M citric acid (30:4:1 mixed solution)) at −20° C. and an excess amount of anhydrous sodium sulfate are added to stop the reaction, and the remaining substrate ([1-14C]PGH2) and the enzymatic reaction product ([1-14C]PGF2α) are extracted in ether at the same time. Part (about 50 μl) of the ether layer is applied onto a silica gel thin layer (Merck & Co.) in a low-temperature room, and thin-layer chromatography (eluent:diethyl ether:methanol:acetic acid (90:2:1 mixed solution)) is performed in a refrigerated room at −20° C. After development, autoradiography of the thin layer plate is performed using the image analyzer FL2000 (Fuji Photo Film), and the substrate to product ratio is calculated to determine enzymatic activity.
The enzymatic reaction described above is conducted in the presence or absence of an inhibitor and a decrease in the reaction rate due to the inhibitor is examined to determine whether or not the reduction is inhibited. Because it is very likely that Trypanosoma cruzi uses prostaglandin to sustain parasitism in host cells, an inhibitor of TcOYE may be used to inhibit Trypanosoma cruzi parasitism in host cells.
Naphtoquinone compounds and nitro heterocyclic compounds that are reduced by TcOYE inhibit the PGH2-F2α reducing activity of TcOYE in a dose-dependent manner.

Compound | Reduction of the compound by TcOYE (substrate specificity) (recombinant TcOYE) | Type of reduction and radical production (ESR) (TcOYE [6]) | other results
CC(=O)Oc1ccccc1C(=O)O [Aspirin] |  |  | Production of PGs (PGD2, PGE2, PGF2) by crude extract ([1]; 3 μM Aspirin): unaffected
COc1ccc2c(c1)c(CC(=O)O)c(C)n2C(=O)c1ccc(Cl)cc1 [indomethacin] |  |  | Production of PGs (PGD2, PGE2, PGF2) by crude extract ([1]; 42 μM indomethacin): unaffected
CCCCC/C=C\C=C\C(=O)CCCCCCCC(=O)O [9-oxo-10E,12Z-octadecadienoic acid] | reduces |  | 
CC/C=C\C[C@@H]1C(=O)C=C[C@@H]1CCCCCCCC(=O)O [12-oxo-phytodienoic acid, 4-oxo-5β-(2Z-pentenyl)-2-cyclopentene-1β-octanoic acid] | reduces |  | 
C[n+]1c2ccccc2nc2ccccc21 [phenazine methosulfate, 5-methyl-phenaziummethylsulfate] | reduces |  | 
recombinant TcOYE (Trypanosoma cruzi old yellow enzyme, PGH2-F2α reductase, flavoprotein, SEQ ID NO: 2, 379 amino acids; expressed in E. coli BL21 from pGEX-4T-1 as fusion with glutathione transferase, recovered by thrombin treatment) (Trypanosoma cruzi) |  |  | Km [2]: 9.5 µM; Km [3]: 19.0 µM; Km [4]: 5.0 µM; Km (C[n+]1c2ccccc2nc2ccccc21): 10.4 µM; Km (CC1=CC(=O)c2ccccc2C1=O): 0.82 µM; Km [5]: 0.17 µM
O=[N+]([O-])c1cc[n+]([O-])c2ccccc12 [4-nitroquinoline-N-oxide] | reduces | underwent two-electron reduction and did not produce radicals | Inhibition of the PGH2-F2α reducing activity of TcOYE (TcOYE [7]): weak
O=C(Cn1ccnc1[N+](=O)[O-])NCc1ccccc1 [benznidazole] | did not reduce |  | 
CC1=CC(=O)c2ccccc2C1=O [menadion] | reduces | underwent one-electron reduction and produced semiquinone radicals | Inhibition of the PGH2-F2α reducing activity of TcOYE (TcOYE [7]): weak
2β,6α-dimethyl-8α-(2-methyl-1-oxo-butoxy)-mevinic acid lactone [mevinolin] | reduces | underwent two-electron reduction and did not produce radicals | 
CC1(C)CCC2=C(O1)c1ccccc1C(=O)C2=O [β-lapachone] | reduces | underwent one-electron reduction and produced semiquinone radicals | Inhibition of the PGH2-F2α reducing activity of TcOYE (TcOYE [7]): weak
CC1CS(=O)(=O)CCN1/N=C/c1ccc([N+](=O)[O-])o1 (stereo not shown) [nifurtimox] | reduces | underwent two-electron reduction and did not produce radicals | Inhibition of the PGH2-F2α reducing activity of TcOYE (TcOYE [7]): inhibits the activity most strongly
Clc1ccc(COC(Cn2ccnc2)c2ccc(Cl)cc2Cl)cc1 (stereo not shown) [econazole] | reduces |  | 
OO [hydrogen peroxide] | reduced |  | 
